Source: patent US20100292334A1, “N-ACYLHYDRAZONE DERIVATIVES USEFUL AS MODULATORS OF NICOTINIC ACETYLCHOLINE RECEPTORS” (NeuroSearch A/S, priority 2007, published 2010)

How the values were obtained:
[1] = target: T1, wild-type nAChR α7 receptors (Homo sapiens, UniProt P36544); test: Positive modulation of nAChR α7 receptors expressed in Xenopus laevis oocytes, two-electrode voltage clamp; format: cell-based
T1 construct: expressed in transfected cells; host or cells: Xenopus laevis oocytes
Protocol: In this example the positive modulation of wild-type nAChR α7 receptors by Compound 3 (i.e. 4-Hydroxy-3-methoxy-benzoic acid [3-methyl-4-oxo-4H-naphthalen-(1E)-ylidene]-hydrazide; FIGS. 1A and 1B) was determined using nAChR α7 receptors heterologously expressed in Xenopus laevis oocytes.
The electrical current through the nAChR α7 channel was measured using conventional two-electrode voltage clamp and nAChR α7 currents were activated by applying pulses of agonist-containing solution onto the nAChR α7 expressing oocyte.
In brief, the oocytes were placed in a recording chambers and continuously super-fused with an Oocyte Ringer (OR) solution containing 90 mM NaCl, 2.5 mM KCl, 2.5 mM CaCl2, 1 mM MgCl2 and 5 mM HEPES (pH adjusted to 7.4). The oocytes were clamped at −60 mV and currents were induced by applying 20 s pulses of 100 μM acetylcholine dissolved in OR. The intervals between the acetylcholine applications were 5 minutes, during which the oocytes were washed with OR. The first three applications were control applications to insure a constant response level of 100 μM acetylcholine.
The positive modulation in the presence of Compound 3 was calculated as (test-control)/control*100% and the concentration response curve for this positive modulation was fitted to the sigmoidal logistic equation: I=Imax/(1+(EC50/[compound])n), where Imax represents the maximal modulation of the control response, EC50 is the concentration causing a half maximal response, and n is the slope coefficient.

T1 sequence (P36544 23-502): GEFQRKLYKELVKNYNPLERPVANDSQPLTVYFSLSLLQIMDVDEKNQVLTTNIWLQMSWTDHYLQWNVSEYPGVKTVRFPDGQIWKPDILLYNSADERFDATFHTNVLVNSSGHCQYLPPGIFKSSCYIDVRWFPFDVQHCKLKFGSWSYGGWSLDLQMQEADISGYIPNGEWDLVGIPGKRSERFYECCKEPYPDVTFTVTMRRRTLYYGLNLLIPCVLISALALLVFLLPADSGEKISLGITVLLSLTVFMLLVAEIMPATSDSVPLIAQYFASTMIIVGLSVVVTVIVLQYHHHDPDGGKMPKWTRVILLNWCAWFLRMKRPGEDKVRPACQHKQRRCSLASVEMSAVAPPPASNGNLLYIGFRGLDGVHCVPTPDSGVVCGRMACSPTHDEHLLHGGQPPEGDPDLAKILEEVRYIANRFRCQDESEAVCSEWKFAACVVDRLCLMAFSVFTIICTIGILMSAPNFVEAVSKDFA

| melting point [°C] | effect on the acetylcholine-induced current amplitude ([1]; 0.01-31.6 μM applied 30 s before and during 100 μM acetylcholine) | Imax (maximal modulation of the control response) ([1]; Xenopus laevis oocytes clamped at −60 mV, 100 μM acetylcholine, (test-control)/control*100%, fitted maximum) [%] | EC50 ([1]; Xenopus laevis oocytes clamped at −60 mV, currents induced by 100 μM acetylcholine, compound 0.01-31.6 μM applied 30 s before and during acetylcholine, read-out: EC50 (concentration causing a half maximal response) of positive modulation) [nM] | SMILES |
| --- | --- | --- | --- | --- |
| 274.3 to 275.7 | – | – | – | CC1=C/C(=N\NC(=O)c2ccc(O)cc2)c2ccccc2C1=O [Compound 1, 4-Hydroxy-benzoic acid [3-methyl-4-oxo-4H-naphthalen-(1E)-ylidene]-hydrazide] |
| 252.9 to 253.4 | – | – | – | COc1ccc(C(=O)N/N=C2\C=C(C)C(=O)c3ccccc32)cc1 [Compound 2, 4-Methoxy-benzoic acid [3-methyl-4-oxo-4H-naphthalen-(1E)-ylidene]-hydrazide] |
| 251.9 to 252.9 | – | – | – | CC1=C/C(=N\NC(=O)c2ccc3[nH]ccc3c2)c2ccccc2C1=O [Compound 4, 1H-Indole-5-carboxylic acid [3-methyl-4-oxo-4H-naphthalen-(1E)-ylidene]-hydrazide] |

The next lines start with the compound.

| SMILES | melting point [°C] | effect on the acetylcholine-induced current amplitude ([1]; 0.01-31.6 μM applied 30 s before and during 100 μM acetylcholine) | Imax (maximal modulation of the control response) ([1]; Xenopus laevis oocytes clamped at −60 mV, 100 μM acetylcholine, (test-control)/control*100%, fitted maximum) [%] | EC50 ([1]; Xenopus laevis oocytes clamped at −60 mV, currents induced by 100 μM acetylcholine, compound 0.01-31.6 μM applied 30 s before and during acetylcholine, read-out: EC50 (concentration causing a half maximal response) of positive modulation) [nM] |
| --- | --- | --- | --- | --- |
| COc1cc(C(=O)N/N=C2\C=C(C)C(=O)c3ccccc32)ccc1O [Compound 3, 4-Hydroxy-3-methoxy-benzoic acid [3-methyl-4-oxo-4H-naphthalen-(1E)-ylidene]-hydrazide] | 254.8 to 255.6 | robust increase | 98 | 490 |
| CC(=O)Nc1ccc(C(=O)N/N=C2\C=C(C)C(=O)c3ccccc32)cc1 [Compound 5, N-{-4-[3-Methyl-4-oxo-4H-naphthalen-(1E)-ylidene-hydrazinocarbonyl]-phenyl}-acetamide] | 280.5 to 280.8 | – | – | – |
| CC1=C/C(=N/NC(=O)c2ccc(C#N)cc2)c2ccccc2C1=O [Compound 6, 4-Cyano-benzoic acid [3-methyl-4-oxo-4H-naphthalen-(1Z)-ylidene]-hydrazide] | 290.3 to 292.7 | – | – | – |
